“Also recorded” adds a separate entry of the source.
What was measured:
[1] = system: HEK293T d2GFP reporter line; assay: GFP disruption assay; assay type: cell-based, human; conditions: for gene editing activity / efficiency (GFP reporter disruption): HEK293T GFP reporter cell line
Text: GFP disruption assay. HEK293T cells were first lentivirally transduced with a destabilized GFP (d2GFP) reporter (derived from Addgene #14760). The resulting HEK293T d2GFP reporter line was then transiently transfected with indicated AsCas12a vector and a vector expressing GFP-targeting crRNA. This d2GFP HEK293T reporter line was used to evaluate the knockout efficiency of seven Addgene-available Cas12a systems (Butyrivibrio sp., Thiomicrospira sp. XS5, Moraxella bovoculi, Prevotella bryantii, Bacteroidetes oral, Lachnospiraceae bacterium, and Acidaminococcus). In addition, AsCas12a vector contained 1, 2, 4, or 6 SV40 or c-Myc NLS cloned into either the N- or C-terminus. The crRNA vector contained an expression marker for mCherry for successful transfection tracking. Cells were cultured for 3 days and subjected to flow cytometry to measure knockdown of GFP using the Guava Easycyte 10 HT instrument (Millipore). Percent GFP disruption is plotted. Two independent GFP-targeting crRNA are presented.

K562 cells = assay: Competition-based cellular proliferation assay; assay type: cell-based
Text: Competition-based cellular proliferation assays. Indicated AsCas12a-expressing cell lines were infected with a lentivirus (pRG212) encoding crRNA, targeting essential genes or known cancer dependencies, linked to a GFP reporter, to track successful transduction, at a multiplicity of infection (MOI) of around 0.2-0.5. The percentage of crRNA-positive (GFP-positive) cell population was monitored over time using the Guava Easycyte 10 HT instrument (Millipore). To assess the impact of a specific single-crRNA or dual-crRNA on cellular proliferation, final time point GFP % was divided by initial time point GFP % to calculate the negative selection fold-change of the crRNA-positive cell population.
To address the low knockout efficiency in mammalian cells, the AsCas12a system was subjected to three levels of optimization. In order to evaluate the knockout efficiency of the system, AsCas12a and its crRNA were expressed using a two-vector lentiviral expression strategy and conducted a competition-based cellular proliferation assay, a reliable proxy for dropout screening (FIG. 1A, 1B). crRNAs targeting known essential genes were designed, including replication protein PCNA and cyclin-dependent kinase CDK1. AsCas12a knockout efficiency was then assessed by measuring the negative selection strength of essential gene-targeting crRNAs in a 16-day time-course. […]

| Substance | gene editing activity / efficiency (GFP reporter disruption) [1] | knockout efficiency relative to SpCas9 ([1]; in human cells) | knockout efficiency (K562 cells; crRNAs targeting essential genes PCNA and CDK1, 16-day time-course) | effect on cellular proliferation (toxicity to the cells) (K562 cells; non-targeting crRNAs and crRNAs targeting introns of PCNA and CDK1) |
| --- | --- | --- | --- | --- |
| AsCas12a: Acidaminococcus Cas12a, wild type RNA-programmable DNA endonuclease | high gene editing activity | approximately one third | – | – |
| enAsCas12a: AsCas12a with E174R and S542R mutations, used with 6xNLS and dual-DR crRNA; the improved/engineered Cas12a system | comparable to Cas9 | – | enhances knockout efficiency | no obvious effect on cellular proliferation; also recorded: does not significantly affect cellular proliferation |

— patent US20230002756A1, “High Performance Platform for Combinatorial Genetic Screening” (THE TRUSTEES OF THE UNIVERSITY OF PENNSYLVANIA, priority 2019, published 2023)
